Data on 86 compounds can be found in a melting point compilation (Tetko et al.; mined from patent text by program, amines drawn as free bases though some values may be those of a salt).

Molecules are shown by their SMILES.

What is called melting point is the temperature of the solid-liquid transition.

On to `COC(=O)Cc1ccc(Oc2ccc(S(C)(=O)=O)cc2)cc1`, for which the melting point lay in the range of 93 to 98 °C.
The figure for `CCCC(NS(=O)(=O)c1ccc(C)cc1)P(=O)(Oc1ccccc1)Oc1ccccc1` (stereo unspecified) is 178 to 180 °C; for `CC(=O)OC1CSC(Oc2cccnc2C(=O)N(C)C)C(OC(C)=O)C1OC(C)=O` (stereo unspecified) it is 85 to 89 °C; for `C[C@@H](NC(=O)[C@H](Cc1ccc(OC(C)(C)C)cc1)NC(=O)OC(C)(C)C)C(=O)O` it is 186 to 187 °C.
The figure for `COc1ccc(Cc2nc3c(O)cccc3o2)cc1OC1CCCC1` is 172 to 181 °C; for `CCOC(=O)OC12Oc3cc(C(C)C)ccc3C1(O)C(=O)c1ccccc12` (stereo unspecified) it is 144 to 147 °C.
The figure for `CCCCc1nc2cncc(C)c2[nH]1` is 111 to 124 °C.
Compound `O=[N+]([O-])C=C1CN=C(c2ccccc2Cl)c2cc(Cl)ccc2N1` displayed a melting point of 182 to 185 °C.
To `CC1(C)C=Cc2c(cc(O)c3c(=O)c4cc5ccccc5cc4[nH]c23)O1` belongs 225 °C; to `C=C(C)C(=O)OCCCCc1ccc(OC(F)(F)c2c(F)cc(-c3ccc(CCCCOC(=O)C(=C)C)cc3F)cc2F)cc1`, 128 °C; to `Cc1c(-c2ccncc2)[nH]c(-c2ccncc2)c1C(N)=O`, 212 to 215 °C.
`COC(=O)c1c(-c2ccccc2)n[nH]c1C`: the melting point was in the range of 119 to 120 °C.
To `COc1cc(CCCC(=O)O)ccc1OCc1nc(-c2ccco2)oc1C` belongs 129 to 130 °C; to `FC(F)(F)c1cc(OCc2ccc(-c3ccccc3-c3nnn[nH]3)cc2)c2c(n1)CCCC2`, 218 to 219 °C; to `COc1cc(-c2nc3ccc(OCC(C)N(C)C)cc3n2Cc2ccccc2C(F)(F)F)cc(OC)c1OC` (stereo unspecified), 163 °C.
`Cc1nc(CC(=O)O)no1`: the melting point fell in the range of 101 to 103 °C.
The figure for `O=C(Nc1ccc(O)cc1)C(=O)Nc1ccc(O)cc1` is greater than 250 °C; for `CC(C)C(NC(=O)C(C)(N)c1ccc2ccccc2c1)C(=O)Nc1nn(C(=O)OCc2ccccc2)c(=S)s1` (stereo unspecified) it is 125 to 132 °C.
The compound `O=C(C=Cc1cccnc1)NCCCOC1CCN(Cc2ccccc2)CC1` gave a melting point of 100 to 102 °C.
As to `COc1ccc(N(C(=O)c2c3ccccc3nc3ccccc23)S(=O)(=O)c2ccc(CCC(=O)ON3C(=O)CCC3=O)cc2)c(OC)c1`, the melting point was 105 °C.
The figure for `COC(=O)C1CC(=O)N(c2cc(C(F)(F)F)cc(C(F)(F)F)c2)C1` (stereo unspecified) is 68 to 70 °C; for `O=C1CCCC12CCOc1ccc(F)cc12` (stereo unspecified) it is 49 to 51 °C; for `CCOC(=O)c1cnc(-c2cc(N)ccc2OCC)[nH]c1=O` it is 107 to 110 °C.
To `N#Cc1c(Cl)nc(OCC(F)(F)F)nc1N1CCc2ccccc2CC1` belongs 165 to 167 °C; to `CCOC(=O)C(=O)Nc1sc(C(=O)OCC)c(C)c1[N+](=O)[O-]`, 118 to 120 °C; to `COC(=O)CCc1c(Cc2ccccc2C(F)(F)F)sc2c1c(=O)n(C)c(=O)n2CC(C)C`, 86 to 88 °C.
The figure for `CC(=O)c1ccc(NS(C)(=O)=O)c(Nc2ccc(F)cc2F)c1` is 113 to 115 °C; for `CCOC(=O)Cc1c(C(=O)OCC)[nH]c(C)c1-c1nc(-c2ccc(OC)cc2)c(-c2ccc(OC)cc2)[nH]1` it is 186 °C; for `O=C(c1ccc(F)cc1)c1ccc(OC(F)(F)F)cc1` it is 42 to 43 °C.
Take `COC(=O)C=Cc1ccc(OCCN(C)c2ccccn2)cc1`: the melting point was in the range of 93 to 95 °C.
With `OCCc1nc(NCc2ccccn2)c2c(-c3ccccc3)csc2n1`, the melting point is 90 to 92 °C.
The figure for `CC(C)=CCCN1C(=O)c2ccccc2C1=O` is 95 to 97 °C; for `CS(=O)(=O)NC(=O)c1cccc([N+](=O)[O-])c1` it is 175 to 178 °C; for `COC(=O)Cc1ccc(C(C)(C)C)c([N+](=O)[O-])c1` it is 92 to 95 °C.
With `CCC(C(=O)C(C)C(O)C(C)CCc1c(Cl)cc(C)c(O)c1C(=O)O)C1OC(CC)(C2CCC(O)(CC)C(C)O2)CC1C` (stereo unspecified), the melting point is 183 to 185 °C.
`COc1ccc(C(=O)Nc2c(Cl)cncc2Cl)c2c1OCC2CC(=O)NCc1ccc(Cl)cc1` (stereo unspecified): the melting point was in the range of 283 to 286 °C.
The figure for `C=C(C(=O)c1ccc(C(=O)NCCN2CCOCC2)cc1)c1cc(OC)c(OC)c(-c2cccs2)c1` is 84 to 87 °C; for `CCc1occc(=O)c1OCc1ccccc1` it is 33 to 34 °C.
In turn, `COC(=O)[C@@]1(c2ccc(Br)cc2)CC1(c1ccccc1)c1ccccc1` showed a melting point of 82 to 85 °C.
The figure for `CCOC(=O)c1cc(-n2c(=O)ccn(C)c2=O)ccc1Cl` is 147 to 148 °C; for `CC(=S)NC(C(=O)NCc1ccccc1)c1ccco1` (stereo unspecified) it is 78 to 80 °C.
The figure for `CC[C@H]1[C@H](O)CC(=O)N1c1ccc(C#N)c(Cl)c1C` is 142 to 146 °C; for `CCCc1nc2c(N)nc(C)c(C)c2n1CCCCS(C)(=O)=O` it is 152 to 153 °C.
The compound `COc1ccc2c(c1)C13CCN(C)C(C2)C1CCC(=O)C3` (stereo unspecified) displayed a melting point of 187 to 188 °C.
To `CC(=O)NCCn1ccc2c1-c1ccccc1CC2` belongs 95 to 96 °C.
The figure for `CCCCCCCCN(CC(=O)NO)S(=O)(=O)c1ccc(C)cc1` is 89 °C; for `COC(=O)c1ccc2c(Br)nn(C)c2c1` it is 122 to 125 °C.
The figure for `O=c1[nH]c2cc(Cl)c(Cl)cc2n1[C@@H]1C[C@H](CO)[C@@H](O)[C@H]1O` is 219 to 220 °C; for `CC(=NO)c1nc(N)nc(N)c1-c1ccc(Cl)cc1` it is 256 to 259 °C.
In turn, `CCN(SN(C)C=Nc1ccc(Cl)cc1C)c1ccccc1` came in with a melting point of 51.5 to 53 °C.
In turn, `O=C(c1cccs1)c1cnn2c(-c3cccc(NC(=O)C4CCNCC4)c3)ccnc12` came in with a melting point of 159 to 161 °C.
The figure for `CCc1nc(N)nc(N)c1N1CCN(c2ccc(C#N)cc2)CC1` is greater than 310 °C.
Compound `O=C(O)CC(CC(=O)Nc1cc(O)c(Cl)cc1F)C(F)(F)F` (stereo unspecified) registered a melting point of 171 to 174 °C.
The compound `CCc1nn(C)c2c1C(c1ccccc1)=NCC(C(=NO)C(=O)OC)=N2` showed a melting point of 225 to 227 °C.
On to `CCCn1c(=O)c2[nH]c(C3CCCC3)nc2n(CCc2ccc(NC(=O)C3CCCC3)cc2)c1=O`, for which the melting point is greater than 270 °C.
`OC(COc1ccc(Cl)cc1)CN1CCN(c2ncccc2F)CC1` (stereo unspecified) returned a melting point of 73 to 76 °C.
The compound `CC(C)(CCC#N)c1ccc(C(=O)Nc2cn3cc(-n4ccnc4)ccc3n2)cc1` registered a melting point of 233 to 234 °C.
To `N#Cc1ccc(-c2cc3c(n2-c2ccc(O)c(C(=O)O)c2)CCCC3)cc1` belongs 242 to 244 °C.
The figure for `CC(C)[C@](C)(O)C(=O)O` is 47 to 49 °C; for `Fc1ccccc1-c1ccc2cccnc2n1` it is 111 to 114 °C.
The figure for `Cc1[nH]c(=O)[nH]c1C(=O)c1ccco1` is 214 to 216 °C; for `Cc1ccc(N2CCN(Cc3ccc4c(c3)NC(=O)CO4)CC2)cc1C` it is 148 to 153 °C; for `C=CCn1nc(-c2ccc(O)cc2O)c2cccc(C(F)(F)F)c21` it is 114 to 115 °C.
The compound `Cc1c(CNC(=O)NO)c2cc(OCc3ccc4ccccc4n3)ccc2n1Cc1ccc(Cl)cc1` gave a melting point of 184 to 186 °C.
To `COC(=O)C(c1ccccc1)C1CCN(c2ccc(NC(=O)c3ccccc3-c3ccc(C(F)(F)F)cc3)cc2)CC1` (stereo unspecified) belongs 151 °C; to `N=C(N)c1nc2c(s1)CCc1c-2sc2nc3ccccc3n12`, greater than 300 °C.
To `CC1SC(=O)NN=C1c1ccc2c(c1)C(=NNc1ccc(Cl)cc1)C(=O)N2` (stereo unspecified) belongs 283 °C; to `CCc1c(C)sc2nc(C(C)C)c(CO)c(-c3ccc(F)cc3)c12`, 188 to 191 °C; to `COC(=O)C1(Cc2c[nH]c3ccccc23)CC(N=[N+]=[N-])C(=O)O1` (stereo unspecified), 110 to 112 °C.
To `COc1cc(C)cc(-c2n[nH]cc2-c2ccnc(SC)n2)c1` belongs 143 °C.
`COc1ccc(CN(C)CCCOc2ccc(NC(=O)c3cccc4c(=O)c5ccccc5[nH]c34)c(C)c2)cc1OC` yielded a melting point of 145 to 150 °C.
To `Nc1nc(-c2cccc3ccccc23)cc2ccc(Cl)cc12` belongs 180 to 181 °C.
The compound `O=C([C@H]1CC[C@H](Nc2nccc(-n3ncc4ccccc43)n2)CC1)N1CCOCC1` returned a melting point of 191 to 192 °C.
The figure for `CCc1ccc2c(c1)C=Cc1cc(C)ccc1C2c1cn(-c2ccnc(N(C)CC(=O)O)n2)c(=O)[nH]c1=S` (stereo unspecified) is 187 °C.
For the compound `O=C(Cc1cccc2ccccc12)Nc1cc([C@H]2C[C@@H](NC(=O)c3ccccc3)C2)[nH]n1`, the melting point was found to be 194 °C.
The compound `CCCc1ccccc1OCCCCCOc1coc(C(=O)OC)cc1=O` had a melting point of 49 to 50 °C.
The compound `C=C(C)c1ccc2c(c1)Cc1ccccc1O2` returned a melting point of 62 to 64 °C.
For `CC1(C)CC(N(CCCCO)S(C)(=O)=O)c2cc(OCc3ccccc3)ccc2O1` (stereo unspecified), the melting point was in the range of 113 to 115 °C.
To `CCCCCC1CCC(C2CCC(CC(O)CC)CC2)CC1` (stereo unspecified) belongs 131 °C; to `CCCn1c(COCC)nc2c(N)nc3ccc(OC4CCN(C(=O)OC(C)(C)C)CC4)cc3c21`, 180 to 181 °C; to `CCCCn1cnc2c(OCc3cccs3)nc(Nc3ccc(OCC)nc3)nc21`, 112 to 114 °C.
Turning to `Cc1nc2cccc(OCC(C)C)c2c(N)c1C(=O)O`, the melting point was 204 °C.
The figure for `COC(=O)c1sc2c(C(F)(F)F)cccc2c1C1CCN(C(C)=O)CC1` is 155 °C.
To `Cc1c(Br)c(=O)n(C2CCCC2)c2nc(Nc3ccc(N4CCOCC4)nc3)ncc12` belongs 254 to 256 °C; to `Cc1c(Cc2ccc(C(C)C)cc2)c2c(c(C)c1NC(=O)CC(C)(C)C)CC(C)(C)O2`, 170 to 171 °C.
To `CN(C)CCN(Cc1ccccc1)C1=NC(=O)C(=Cc2cccc(-c3cc(F)c(O)c(C45CC6CC(CC(C6)C4)C5)c3)c2)S1` belongs 242 to 246 °C.
